Assay results reported in PMC5361054, “Exploring the Association of Surface Plasmon Resonance with Recombinant MHC:Ig Hybrid Protein as a Tool for Detecting T Lymphocytes in Mice Infected with Leishmania (Leishmania) amazonensis” (BioMed Research International, 2017).

Experiments:
[1] = target: H-2 L^d:Ig (DimerX) protein; assay: SPR kinetics of synthetic peptide binding to immobilized DimerX; design: species or system Mouse; settings: for Kd: KD = kd/ka from SPR at 25°C, read-out: affinity constant (KD); for association constant (ka) / dissociation constant (kd): SPR, DimerX immobilized on carboxylated sensor chip by EDC/NHS, peptide in PBS, neutral pH, 25°C
Method: Surface Functionalization of Sensor Chip (Steps 1 and 2). The functionalization process was performed in eight steps using running buffer (10 mM HEPES, 3 mM EDTA, 150 mM NaCl, and 0.005% Tween 20, pH 7.4) at a continuous flow rate (Fr): (i) injection of 10 μL of 50 mM HCl (Fr = 10 μL/min); (ii) injection of 100 μL 10 mM CH3COOH (Fr = 50 μL/min); (iii) injection of 150 μL of coupling agents (1 : 1) 400 mM EDC : NHS (Fr = 15 μL/min); (iv) injection of 100 μL 10 mM CH3COOH (Fr = 50 μL/min); (v) injection of 100 μL (0.5 μg) of DimerX H-2 L^d:Ig (Fr = 10 μL/min); (vi) injection of 100 μL 10 mM CH3COOH (Fr = 50 μL/min); (vii) injection of 150 μL 100 mM ethanolamine (Fr = 20 μL/min); and (viii) injection of 200 μL 50 mM HCl (Fr = 50 μL/min).
Complex Formation of H-2 L ^d :Ig/Peptide (Step 3). Binding of peptides to protein DimerX was performed through the injection of 100 μL of each synthetic peptide over the functionalized sensor chip (Fr = 10 μL/min). The peptides (2 mg/mL) were diluted in filtrated PBS, which was also used as the running buffer. The concentration of peptides for binding to the DimerX was determined according to the manufacturer's instructions:(1) Mp=MH·R·Dp/DH, where Mp is micrograms of the peptide, MH is micrograms of H-2 in the reaction, R is molar excess (160 mol) between the peptide and protein H-2, Dp is molecular weight of the peptide, and DH is molecular weight of DimerX (250,000 Da).
Affinity Constants and Gibbs Free Energy. […] The following calculation was used to obtain the KD for interactions that rapidly reach equilibrium:(2) KD=kd/ka. The formation of molecular complex between DimerX and peptides complex was also analyzed to calculate the Gibbs free energy of dissociation. This energy is related to the equilibrium constant (Keq) of the transition state between the product (DimerX/peptide) and its transient state. The values of Keq were calculated using the ka and kd data obtained from the SPR assay at 25°C:(3) ΔG^°=−RTln1/Keq.
The kinetic parameters of DimerX/peptides complexes were assessed, prior to the ex vivo assay with the mouse cells, to ensure that the assayed peptides could stably bind to the H-2 cleft of DimerX proteins. The DimerX proteins were immobilized onto the sensor chip using the EDC/NHS methodology for covalent binding and, thus, we assumed that the α1 and α2 domains of the recombinant H-2 were free to interact with the synthetic peptides in solution. The RU value obtained after DimerX immobilization was taken as reference to define the baseline to measure peptides binding (Figure 1).

[2] = tested on: lymph node cells (T lymphocytes) from L. (L.) amazonensis-infected BALB/c mice; assay: SPR interaction of lymph node cells with immobilized DimerX/peptide complexes; format: cell-based; settings: for RUs (subtractive dissociation response) 3rd week: 3rd week of infection; for RUs (subtractive dissociation response) 4th week: 4th week of infection; for RUs (subtractive dissociation response) 6th week: 6th week of infection; for RUs (subtractive dissociation response) 12th week: 12th week of infection; for RUs (subtractive dissociation response) 18th week: 18th week of infection; for trend of reactivity of peptide-reactive T lymphocytes along the infection: weeks 1 to 18 of infection, result in words
Method: BALB/c 5–7-week-old female mice (H-2 haplotype^d) were obtained from the animal care facility of Fiocruz (Centro de Criação de Animais de Laboratório (CECAL), Fiocruz). For the experimental infections, each animal was inoculated subcutaneously with 1.0 × 10^5 stationary-phase promastigotes in PBS (50 μL) in the left hind paw. For in vitro and ex vivo assays, cells were isolated from the lesion-draining popliteal lymph nodes of five mice infected with L. (L.) amazonensis. After isolating and counting the viable cells, these were adjusted and resuspended in RPMI medium supplemented with 2% FCS (5.0 × 10^5 cells/mL). All procedures using animals were previously approved by the Animal Ethics Committee of Fiocruz (Comissão de Ética no Uso de Animais (CEUA), Fiocruz; L-0006/07).
Interaction of the Cells with the Complex DimerX/Peptide (Step 4). The reflectance values were expressed as resonance units per second (RU/s). In these assays, the kinetics of association and dissociation between immobilized DimerX/peptide complexes and lymph node cells were determined. These assays were performed with 10^4 cells suspended in PBS in a final volume of 100 μL (Fr = 5 μL/min).
Regeneration of the Sensor Chips (Step 5). The regeneration was performed by the injection of 250 μL of 30 mM HCl (Fr = 50 μL/min) into the system, followed by the injection of 200 μL PBS (Fr = 50 μL/min). After this procedure, only the DimerX molecules were left on the sensor chip surface; thus they were able to form new complexes with different peptides and interact again with cells.
Lymph node cells were injected onto SPR chips covered by immobilized DimerX/peptides complexes (Figure 4). In these experiments, due to the complexity to define the kinetic parameters for whole cells, the RU values for association (RUa) and dissociation (RUd) were used as standards to assess interaction of cells with the complexes. Also, as the stability of RUd signal over time relates to the stability of interaction, it was used as parameter to define the binding of reactive cells.
Furthermore, experimental evidences support the hypothesis that the binding of the cells from infected mice to the immobilized complexes is specific, once the RUd values obtained for these interactions were consistently higher that those observed for the interaction of cells from noninfected mice. The RU values obtained by the subtraction of the nonspecific interaction RU (cells from noninfected animals) from the specific interaction RU (cells from infected mice) were considered as representative of the binding effectiveness (Table 2). These effectiveness RU values allowed observing a different trend of T lymphocytes recognition for each peptide tested throughout the experimental infection timeline (Table 2).

[3] = RUd of cells from infected mice minus RUd of cells from noninfected mice, 10^4 cells in PBS

Sequence of H-2 L^d:Ig (DimerX) protein (P01897 25-298 limits assumed): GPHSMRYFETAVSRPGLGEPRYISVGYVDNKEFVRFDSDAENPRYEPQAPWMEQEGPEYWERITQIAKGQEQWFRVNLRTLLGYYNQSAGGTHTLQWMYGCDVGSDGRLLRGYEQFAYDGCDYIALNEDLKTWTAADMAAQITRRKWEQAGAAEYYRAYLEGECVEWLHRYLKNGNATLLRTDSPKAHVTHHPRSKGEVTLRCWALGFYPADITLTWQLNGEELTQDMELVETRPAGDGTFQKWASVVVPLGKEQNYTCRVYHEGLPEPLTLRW
Sequence of H-2 L^d:Ig (DimerX) protein (P01887 21-119, further chain): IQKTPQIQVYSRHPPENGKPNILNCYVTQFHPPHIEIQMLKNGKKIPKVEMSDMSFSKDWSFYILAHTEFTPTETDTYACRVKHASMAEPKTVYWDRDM

Sequence | Kd [1] [nM] | association constant (ka) [1] | dissociation constant (kd) [1] [S^−1] | RUs (subtractive dissociation response) 1st week ([2]; RUd of cells from infected mice minus RUd of cells from noninfected mice, 10^4 cells in PBS, 1st week of infection) [RU] | RUs (subtractive dissociation response) 3rd week [2, 3] [RU] | RUs (subtractive dissociation response) 4th week [2, 3] [RU] | RUs (subtractive dissociation response) 6th week [2, 3] [RU] | RUs (subtractive dissociation response) 12th week [2, 3] [RU] | RUs (subtractive dissociation response) 18th week [2, 3] [RU] | trend of reactivity of peptide-reactive T lymphocytes along the infection [2]
MVEQVICFD [P1.9, synthetic peptide … derived from the COOH-terminal region of cysteine proteinase B of L. (L.) amazonensis] | 74 | 1.57 × 10^6 M^−1 S^−1 | 0.1157 | 115 | 181 | 149 | 118 | 120 | 66 | oscillation in their reactivity
CLGGGLCL [P6.4, synthetic peptide CLGGGLCL derived from the COOH-terminal region of cysteine proteinase B of L. (L.) amazonensis] | 9 | 1.20 × 10^7 M^−1 S^−1 | 0.1089 | – | 100 | 127 | 140 | – | 66 | oscillation in their reactivity
EFCLGGGLC [P6.5, synthetic peptide … derived from the COOH-terminal region of cysteine proteinase B of L. (L.) amazonensis] | 0.7 | 6.40 × 10^7 M^−1 S^−1 | 0.0470 | – | 55 | 185 | 109 | 27 | 85 | oscillation in their reactivity
VEQVICFD [P1.10, synthetic peptide VEQVICFD derived from the COOH-terminal region of cysteine proteinase B of L. (L.) amazonensis] | 1 | 1.10 × 10^8 M^−1 S^−1 | 0.1230 | – | 227 | – | 123 | 31 | 44 | clear tendency to diminish their reactivity along the infection
